Experimental findings from patent US20050042236A1, “Plant extract active as an immunostimulating agent” (priority 2001, published 2005) are described below.

The subject of this assay is EA-specific antibodies. Description: Production of EA-specific antibodies in mice (Table 2). It is filed as in vivo. The conditions noted are these: EA 50 μg, BaBb/c mice, preparation 20 μg intraperitoneal. The procedure:
Erythrocytes of defibrinated sheep blood were washed three times by centrifugation (1000 rpm, 10 m)in 50-fold volume of Hanks' solution, and were then re-suspended in the same solution. Mice were immunised intraperitoneally with 2 ml SE, 200 μg BSA or 50 μg EA. The latter two antigens were injected twice, with a 2-4 week interval between immunisations.
The appropriate amount of APG was dissolved in Hank's solution or in physiological saline, 2-3 hours prior to use. APG was administered to mice in doses of between 1 and 1000 μg. When. mice were immunised with BSA, EA or SE, APG was administered simultaneously with the antigen.
The intensity of the immune response in mice which were immunised with SE was determined according to the number of antibody-forming cells (AFC), detected in the spleen cell suspensions using the method of Jerne and Nordin (1963). AFC were detected 4-5 days following immunisation. Presence of antibodies specific to EA or BSA in blood serum of mice was detected using a solid-phase enzyme-immunoassay (EIA). Isotype of antibodies specific to BSA was determined by EIA using secondary rabbit antibodies specific to mouse IgM, IgG1, IgG2a, IgG2b or IgG3.
The lipopeptide was Pam3Cys-Ser-Lys4 a well-known immunoadjuvant.

Turning to Pam3Cys-Ser-Lys4 [lipopeptide], the “Serum Titer of EA-specific Antibodies” value is given as 20,000.
